How the values were obtained:
Settings in all cases: live HEK293T cells, 50 μM, four hours
[1] = system: mammalian proteins in HEK293T cells; test: In cellulo IA-DTB chemoproteomics, off-target engagement; type: cell-based, human
Procedure: (§1) Fig. 5 Characterisation of protein interactions by compounds 6 and 7. (A) SspH1 and SspH2 catalytic cysteine labelling with compound 6 (100–3.125 μM, 4 hours) in HEK293T lysate spiked with recombinant SspH1 and SspH2. Data are presented as mean ± SEM, n = 4. The curves were fitted with GraphPad Prism 10 using four parameter nonlinear regression with baseline correction to DMSO-treated samples. (B) SspH1 and SspH2 catalytic cysteine labelling with compound 7 (100–3.125 μM, 4 hours) in HEK293T lysate spiked with recombinant SspH1 and SspH2. Data are presented as mean ± SEM, n = 4. The curves were fitted with GraphPad Prism 10 using four parameter nonlinear regression with baseline correction to DMSO-treated samples. (C) Volcano plot of IA-DTB competition in SspH1 expressing HEK293T cells treated with compound 6 (50 μM, 4 hours). (D) Volcano plot of IA-DTB competition in SspH2 expressing HEK293T cells treated with compound 6 (50 μM, 4 hours). Data is shown as compared to DMSO treated samples, with competed peptides in the upper left-hand quadrant. […]
(§2) All cells were grown in DMEM media (Gibco, 41966-029) supplemented with FBS (ThermoFisher, A5256701) and Pen/Strep (Gibco, 15140-122) at 37 °C with 5% CO2. […] Protein concentrations were measured using a Rapid BCA Gold Protein Assay Kit (Thermo Scientific, A53226) and diluted to 1 mg mL^−1 with lysis buffer. […]

[2] = biological target: T1, SspH2 expressed in HEK293T cells (Salmonella typhimurium, UniProt D0ZPH9); test: In cellulo target engagement, IA-DTB chemoproteomics; type: cell-based
T1 construct: SspH1 (aa 1–700) and SspH2 (aa 1–786) genes were cloned separately; expressed in transfected cells; host or cells: HEK293T
Procedure: as §1, §2

[3] = biological target: T2, SspH1 expressed in HEK293T cells (Salmonella typhimurium, UniProt D0ZVG2); test: as above; type: cell-based
T2 construct: SspH1 (aa 1–700) and SspH2 (aa 1–786) genes were cloned separately; expressed in transfected cells; host or cells: HEK293T
Procedure: as §1, §2

T1 sequence (D0ZPH9 1-786): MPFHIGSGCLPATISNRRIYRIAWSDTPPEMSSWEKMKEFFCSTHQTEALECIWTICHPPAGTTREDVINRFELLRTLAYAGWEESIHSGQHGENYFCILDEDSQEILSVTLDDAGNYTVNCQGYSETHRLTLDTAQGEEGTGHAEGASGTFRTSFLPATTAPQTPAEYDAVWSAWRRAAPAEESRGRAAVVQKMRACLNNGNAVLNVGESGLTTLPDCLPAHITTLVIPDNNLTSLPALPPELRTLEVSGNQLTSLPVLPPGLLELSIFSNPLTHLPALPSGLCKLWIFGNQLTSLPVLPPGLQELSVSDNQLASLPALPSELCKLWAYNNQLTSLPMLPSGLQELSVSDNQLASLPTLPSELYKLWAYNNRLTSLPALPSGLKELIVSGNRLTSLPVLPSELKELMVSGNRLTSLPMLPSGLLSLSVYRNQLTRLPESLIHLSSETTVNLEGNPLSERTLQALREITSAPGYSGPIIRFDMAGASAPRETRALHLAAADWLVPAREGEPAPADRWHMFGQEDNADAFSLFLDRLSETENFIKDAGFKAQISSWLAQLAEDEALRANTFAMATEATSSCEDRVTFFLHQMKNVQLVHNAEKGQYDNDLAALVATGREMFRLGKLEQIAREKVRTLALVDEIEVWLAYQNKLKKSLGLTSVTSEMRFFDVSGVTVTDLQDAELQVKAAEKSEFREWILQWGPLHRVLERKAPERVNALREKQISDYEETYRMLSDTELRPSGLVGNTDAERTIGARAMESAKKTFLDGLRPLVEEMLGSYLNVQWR
T2 sequence (D0ZVG2 whole entry, the tested form may be a part): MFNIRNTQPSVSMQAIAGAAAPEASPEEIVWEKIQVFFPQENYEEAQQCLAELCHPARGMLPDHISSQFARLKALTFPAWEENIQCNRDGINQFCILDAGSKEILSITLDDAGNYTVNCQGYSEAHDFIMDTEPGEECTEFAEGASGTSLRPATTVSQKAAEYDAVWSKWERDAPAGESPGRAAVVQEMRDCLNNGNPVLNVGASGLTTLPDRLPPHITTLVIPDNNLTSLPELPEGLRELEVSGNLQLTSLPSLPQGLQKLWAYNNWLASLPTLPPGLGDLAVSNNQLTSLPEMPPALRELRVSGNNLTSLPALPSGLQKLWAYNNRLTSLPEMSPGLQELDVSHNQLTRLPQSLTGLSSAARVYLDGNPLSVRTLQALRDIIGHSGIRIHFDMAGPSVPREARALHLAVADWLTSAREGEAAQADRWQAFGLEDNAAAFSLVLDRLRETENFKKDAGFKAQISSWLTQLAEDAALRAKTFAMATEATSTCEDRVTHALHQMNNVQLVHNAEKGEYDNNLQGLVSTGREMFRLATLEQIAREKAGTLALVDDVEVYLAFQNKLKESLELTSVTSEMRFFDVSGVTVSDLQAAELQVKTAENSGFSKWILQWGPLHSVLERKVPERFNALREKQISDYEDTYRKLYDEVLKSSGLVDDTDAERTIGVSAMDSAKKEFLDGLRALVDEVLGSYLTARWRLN

Cc1cc(-c2nc3ccccc3n2C2CCN(C(=O)CCl)CC2)cc(C)c1O.Cl [compound 6]
engagement of catalytic cysteines-containing peptides of HECT or RBR E3 ligases, or DUBs [1]: none | engagement of mammalian proteins [1]: engagement of multiple mammalian proteins | competition of IA-DTB labelling of C580 peptide of SspH2 [2]: strong competition | competition of IA-DTB labelling of catalytic cysteine C492 peptide of SspH1 [3]: strong competition

From publication PMC12584752, “Covalent fragment screening to inhibit the E3 ligase activity of bacterial NEL enzymes SspH1 and SspH2” (RSC Chemical Biology, 2025)
